{
  "source": "ChEMBL document CHEMBL1129353",
  "about": "“Synthesis and biological evaluation of N alpha-(4-amino-4-deoxy-10-methylpteroyl)-DL-4,4-difluoroornithine” (J Med Chem, 1996)",
  "key": {"[1]": {"test": "Dissociation constant was evaluated", "assay_type": "physicochemical"}, "CCRF-CEM [2]": {"system": "CCRF-CEM", "test": "Inhibitory activity against growth of CCRF-CEM human leukemia cells. value mentioned is from literature", "assay_type": "functional", "conditions": "read-out: ED50"}, "Dihydrofolate reductase [3]": {"target": "T1, Dihydrofolate reductase (Homo sapiens, UniProt P00374)", "T1 sequence (P00374 whole entry)": "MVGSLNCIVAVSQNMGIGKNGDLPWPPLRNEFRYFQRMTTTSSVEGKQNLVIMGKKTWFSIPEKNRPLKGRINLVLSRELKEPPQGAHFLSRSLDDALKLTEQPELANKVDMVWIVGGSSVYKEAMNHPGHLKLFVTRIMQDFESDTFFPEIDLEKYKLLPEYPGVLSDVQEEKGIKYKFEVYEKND", "test": "Inhibitory concentration against dihydrofolate reductase enzyme (DHFR) enzyme isolated from CCRF-CEM human leukemia cells. value mentioned is from literature"}, "Dihydrofolate reductase [4]": {"target": "T1, Dihydrofolate reductase", "test": "Inhibitory concentration against dihydrofolate reductase enzyme (DHFR) enzyme isolated from CCRF-CEM human leukemia cells.", "assay_type": "cell-free"}, "CCRF-CEM [5]": {"system": "CCRF-CEM", "test": "cells", "conditions": "Homo sapiens, read-out: ED50"}, "[6]": {"target": "T2, Folylpolyglutamate synthase, mitochondrial (Homo sapiens, UniProt Q05932)", "T2 sequence (Q05932 whole entry)": "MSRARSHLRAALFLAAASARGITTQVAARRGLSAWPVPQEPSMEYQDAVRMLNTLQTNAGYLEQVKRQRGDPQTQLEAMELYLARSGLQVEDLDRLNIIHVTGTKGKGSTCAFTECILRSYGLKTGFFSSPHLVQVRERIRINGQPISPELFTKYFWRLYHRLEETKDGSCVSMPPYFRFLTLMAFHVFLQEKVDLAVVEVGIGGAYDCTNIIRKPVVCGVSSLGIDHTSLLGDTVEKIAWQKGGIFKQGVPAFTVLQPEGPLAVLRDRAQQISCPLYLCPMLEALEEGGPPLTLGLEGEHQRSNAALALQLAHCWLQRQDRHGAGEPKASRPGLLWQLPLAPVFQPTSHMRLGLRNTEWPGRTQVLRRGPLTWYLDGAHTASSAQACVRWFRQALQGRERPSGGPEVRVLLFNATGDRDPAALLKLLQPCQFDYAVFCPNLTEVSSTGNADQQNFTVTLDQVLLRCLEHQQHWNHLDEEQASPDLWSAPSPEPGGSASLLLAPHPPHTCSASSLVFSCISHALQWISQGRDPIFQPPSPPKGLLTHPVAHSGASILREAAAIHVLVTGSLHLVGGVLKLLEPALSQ", "test": "Inhibitory concentration against human Folyl-polyglutamate synthase isolated from CCRF-CEM human leukemia cells.", "assay_type": "cell-free"}, "[7]": {"target": "T2, Folylpolyglutamate synthase, mitochondrial", "test": "Inhibitory activity against mammalian Folyl-polyglutamate synthase"}},
  "data": [
    {"smiles": "NCC(F)(F)CC(N)C(=O)O", "note": "(stereo unspecified)", "values": [
      {"measurement": "pKa", "setting": "[1]", "result": 6.9}
    ]},
    {"smiles": "CN(Cc1cnc2nc(N)nc(N)c2n1)c1ccc(C(=O)NC(CCCN)C(=O)O)cc1", "note": "(stereo unspecified)", "values": [
      {"measurement": "pKa", "setting": "[1]", "result": 10.8},
      {"measurement": "EC50", "setting": "CCRF-CEM [2]", "result": 740, "unit": "nM"},
      {"measurement": "IC50", "setting": "Dihydrofolate reductase [3]", "result": 1, "unit": "nM"},
      {"measurement": "IC50", "setting": "Dihydrofolate reductase [4]", "result": 2.5, "unit": "nM"},
      {"measurement": "EC50", "setting": "CCRF-CEM [5]", "result": 740, "unit": "nM"},
      {"measurement": "IC50", "setting": "[6]", "result": 33000, "unit": "nM"}
    ]},
    {"smiles": "CN(Cc1cnc2nc(N)nc(N)c2n1)c1ccc(C(=O)NC(CC(F)(F)CN)C(=O)O)cc1", "note": "(stereo unspecified)", "values": [
      {"measurement": "IC50", "setting": "Dihydrofolate reductase [4]", "result": 1.3, "unit": "nM"},
      {"measurement": "EC50", "setting": "CCRF-CEM [5]", "result": 93, "unit": "nM"},
      {"measurement": "IC50", "setting": "[6]", "result": "> 300000", "unit": "nM"}
    ]},
    {"smiles": "NCCCC(NC(=O)c1ccc(NCC2CNc3nc(N)[nH]c(=O)c3N2)cc1)C(=O)O", "note": "(stereo unspecified)", "values": [
      {"measurement": "Ki", "setting": "[7]", "result": 200, "unit": "nM"}
    ]}
  ]
}
